Key:
[1] = LNP size and polydispersity index (PDI) by dynamic light scattering; format: physicochemical; details: for Size: in nm (unit assumed)
Summary of the method: (§1)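 Dynamic light scattering and zeta potential measurements were run on PBS-dialyzed LNPs, which had been formed by microfluidic mixing at 12 ml/min with final lipid at 1.5 mM to 6 mM. RNA content and percent encapsulation were determined by Ribogreen with and without Triton X-100.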

[2] = LNP zeta potential (Zetasizer); format: physicochemical
Summary of the method: as §1

[3] = RNA encapsulation efficacy by Quant-IT Ribogreen kit; format: physicochemical; details: for Encapsulation Efficiency %: LNP with cirRNA (SEQ ID NO: 1); for Encapsulation Efficiency: LNP with mRNA (SEQ ID NO: 2)
Summary of the method: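 LNPs of ionizable lipid/DSPC/cholesterol/DMG-PEG 2000 (50:10:38.5:1.5) made by microfluidic mixing of luciferase circRNA or mRNA in pH 4.5 acetate with lipids in ethanol (3:1, 12 ml/min), ionizable lipid:nucleotide 15 or 6, then dialyzed against PBS. Size, PDI (DLS) and zeta potential on Zetasizer; encapsulation by Ribogreen ± Triton X-100.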

Hep G2 cells [4] = assay: In vitro expression of firefly-luciferase, Hep G2; format: cell-based
Summary of the method: (§2)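 Cells were transfected with firefly-luciferase-encoding RNA-LNPs at 100 ng/mL. After 72 hours they were washed and lysed, and luciferase activity in the lysates was read by luminometry.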

RAW 264.7 cells [5] = assay: In vitro expression of firefly-luciferase, RAW 264.7; format: cell-based
Summary of the method: as §2

Hep G2 cells [6] = assay: In vitro toxicity (CellTiter-Glo cell viability), Hep G2; format: cell-based;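 also: percent of untreated cells luminescence signal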
Summary of the method: (§3)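 Toxicity of RNA-LNPs (1 μg/mL) is reported as cell viability, calculated from CellTiter-Glo luminescence measured at 72 hours after transfection.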

RAW 264.7 cells [7] = assay: In vitro toxicity (CellTiter-Glo cell viability), RAW 264.7; format: cell-based;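 also: percent of untreated cells luminescence signal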
Summary of the method: as §3

BALB/C mice [8] = assay: In vivo expression, whole-body luminescence (IVIS)
Procedure: 6-8 week old, female BALB/C mice were injected with 0.05 mg*kg-1 of RNA-LNPs encoding for firefly-luciferase by intravenous injection. At 6 hours post injection, animals were intraperitoneally injected with 15 mg/ml of Luciferin substrate and whole-body luminescence was determined by a bioluminescent in vivo imaging system (IVIS).

MCP-I = MCP-I cytokine elevation in serum; format: in vivo; details: cirRNA (SEQ ID NO: 1) LNPs, mice
Procedure: 6-8 week old, female BALB/C mice were injected with 0.5 mg*kg-1 of RNA LNPs by intravenous injection. At 2 and 24 hours post injection, animals were bled and sera concentrations of MCP-I were determined by an immunoassay (Luminex).

[9] = test system: Alanine Aminotransferase (ALT); assay: Liver enzyme elevation in serum, ALT; format: in vivo; details: cirRNA (SEQ ID NO: 1) LNPs, BALB/C mice, intravenous 0.5 MPK
Procedure: (§4) 6-8 week old, female BALB/C mice were injected with 0.5 mg*kg-1 of RNA LNPs by intravenous injection. At 2 and 24 hours post injection, animals were bled and sera concentrations of Alanine Aminotransferase (ALT) and Aspartate Aminotransferase (AST) were determined by a blood chemistry analyzer.

[10] = test system: Aspartate Aminotransferase (AST); assay: Liver enzyme elevation in serum, AST; format: in vivo; details: cirRNA (SEQ ID NO: 1) LNPs, BALB/C mice, intravenous 0.5 MPK
Procedure: as §4

BALB/C mice [11] = assay: Local tolerance determination by footpad injection; format: in vivo; details: cirRNA (SEQ ID NO: 1) LNP, 0.175 mg*kg-1 subcutaneous into the footpad, 24 hours post minus prior
Procedure: 6-8 week old, female BALB/C mice were injected with 0.175 mg*kg-1 RNA LNPs by subcutaneous injection into the footpad. Prior to, and 24 hours post injections, injected footpad thickness was determined by a caliper.

[12] = cirRNA (SEQ ID NO: 1) LNPs, firefly-luciferase luminescence, Hep G2 cells
[13] = mRNA (SEQ ID NO: 2) LNP, 100 ng/mL, 72 hours post transfection, luciferase activity
[14] = cirRNA (SEQ ID NO: 1) LNPs, firefly-luciferase luminescence, RAW 264.7 cells
[15] = cirRNA (SEQ ID NO: 1) LNPs, Hep G2 cells
[16] = mRNA (SEQ ID NO: 2) LNP, 1 μg/mL, 72 hours post transfection
[17] = cirRNA (SEQ ID NO: 1) LNPs, RAW 264.7 cells
[18] = cirRNA (SEQ ID NO: 1) LNPs, BALB/C mice
[19] = mRNA (SEQ ID NO: 2) LNP, 0.05 mg*kg-1 intravenous, 6 hours post injection

Row | SMILES | PDI ([1]; LNP with cirRNA (SEQ ID NO: 1)) | Size ([1]; LNP with cirRNA (SEQ ID NO: 1)) | PDI ([1]; LNP with mRNA (SEQ ID NO: 2)) | Size ([1]; LNP with mRNA (SEQ ID NO: 2)) | Zeta (mV) ([2]; LNP with cirRNA (SEQ ID NO: 1)) | Zeta (mV) ([2]; LNP with mRNA (SEQ ID NO: 2)) | Encapsulation Efficiency % [3] | Encapsulation Efficiency [3] | In vitro Expression HepG2 (Hep G2 cells [4]; [12]) | In vitro Expression HepG2 (Hep G2 cells [4]; [13]) | In vitro Expression RAW (RAW 264.7 cells [5]; [14]) | In vitro Expression RAW (RAW 264.7 cells [5]; [13]) | In vitro Viability HepG2 (Hep G2 cells [6]; [15]) | In vitro Viability HepG2 (Hep G2 cells [6]; [16]) | In vitro Viability RAW (RAW 264.7 cells [7]; [17]) | In vitro Viability RAW (RAW 264.7 cells [7]; [16]) | In vivo Expression (Whole Body) (BALB/C mice [8]; [18]) | In vivo Expression (Whole Body) (BALB/C mice [8]; [19]) | MCP-I in Sera 2 hours After 0.5 MPK Injection (MCP-I) | MCP-I in Sera 24 hours After 0.5 MPK Injection (MCP-I) | further results
1 | CCCCC/C=C\C/C=C\CCCCCCCCN(CCCCCCCC(=O)OC(CCCCCCCC)CCCCCCCC)CCOC(=O)NCCCN(CC)CC [Lipid 131, heptadecan-9-yl 3-ethyl-12-((9Z,12Z)-octadeca-9,12-dien-1-yl)-8-oxo-9-oxa-3,7,12-triazaicosan-20-oate] | 0.22 | 74.78 | 0.1606 | 84.16 | 5.61 mV | 15.29 mV | 96% | 90.68% | 4.49E+06 | 5.66E+06 | 4.04E+06 | 9.55E+05 | 83% | 89% | 77% | 96% | 2.27E+08 | 4.52E+07 | 5003.82 pg/mL | 16.42 pg/mL | ALT in Sera (IU/L) 2 hours After 0.5 MPK Injection [9]: 51.17 IU/L; ALT in Sera (IU/L) 24 hours After 0.5 MPK Injection [9]: 44.57 IU/L; AST in Sera (IU/L) 2 hours After 0.5 MPK Injection [10]: 161.27 IU/L; AST in Sera (IU/L) 24 hours After 0.5 MPK Injection [10]: 83.17 IU/L; Footpad Thickness (24 h−0 h, mm) (BALB/C mice [11]): 1.17 mm
2 | CCCCC/C=C\C/C=C\CCCCCCCCN(CCCCCCCC(=O)OC(CCCCCCCC)CCCCCCCC)CCOC(=O)NCc1ncc[nH]1 [Lipid 132, heptadecan-9-yl 8-((2-((((1H-imidazol-2-yl)methyl)carbamoyl)oxy)ethyl)((9Z,12Z)-octadeca-9,12-dien-1-yl)amino)octanoate] | 0.072 | 91.78 | 0.2359 | 56.12 | −0.7024 mV | −8.336 mV | 97% | 89.06% | 1.44E+05 | 1.83E+05 | 4.24E+05 | 1.27E+05 | 97% | 80% | 108% | 93% | 6.13E+08 | 6.62E+08 | 28.53 pg/mL | 96.56 pg/mL | ALT in Sera (IU/L) 2 hours After 0.5 MPK Injection [9]: 65.03 IU/L; ALT in Sera (IU/L) 24 hours After 0.5 MPK Injection [9]: 44.73 IU/L; AST in Sera (IU/L) 2 hours After 0.5 MPK Injection [10]: 136.00 IU/L; AST in Sera (IU/L) 24 hours After 0.5 MPK Injection [10]: 72.53 IU/L; Footpad Thickness (24 h−0 h, mm) (BALB/C mice [11]): 1.24 mm
